Test results: patent US11649477B2, “Assays and reagents for antimicrobial susceptibility testing” (SELUX DIAGNOSTICS, INC., priority 2018, dated 2023)
Values after ≈ are worked out from the molar mass of the structure shown.

Legend:
[1] = tested on: E. coli; conditions: E. coli strain tested; values as generally found; cited from earlier work
[2] = tested on: P. mirabilis; test: Anionic ratio (growth in colistin vs MHB, Alamar Blue fluorescence); format: cell-based; conditions: 4 μg/ml colistin, Ex560/Em590
Description: (§1) P. mirabilis and K. pneumoniae were prepared by diluting colonies into saline to reach a McFarland value of 0.5, which was verified using a spectrophotometer, diluted, and inoculated into 96-well plates containing cation-adjusted Mueller Hinton broth and doubling dilutions of gentamycin (GEN) and ciproflaxin (CIP). Plates were incubated at 35° C., shaking at 150 rpm for 3 hours, after which 10 μl of Alamar Blue were added to each well and plates were incubated for 1 additional hour. After this incubation, Alamar Blue signal was read as the fluorescent signal Ex560/Em590. […] After the final wash, time-resolved fluorescence (TRF) for all wells was read at 330/615 nm.
(§2) The anionic ratios were calculated from the background subtracted fluorescent signal (Ex560/Em590) of bacteria grown in 4 μg/ml colistin divided by the background subtracted fluorescent signal of bacteria grown in MHB. […]

[3] = tested on: K. pneumoniae; test: as above; format: cell-based; conditions: 4 μg/ml colistin, Ex560/Em590
Description: as §1, §2

[4] = tested on: S. aureus; test: Rapid AST, vancomycin dilution series read by Eu-cryptate-diamine surface binding (TRF); format: cell-based; conditions: Staphylococcus aureus, CTAB pretreatment, CTAB removed before probe, TRF 330/615 nm, read-out: minimum inhibitory concentration (MIC)
Description: S. aureus were prepared by diluting colonies into saline to reach a McFarland value of 0.5, which was verified using a spectrophotometer, diluted, and inoculated into 96-well plates containing cation-adjusted Mueller Hinton broth and doubling dilutions of vancomycin. Plates were incubated at 35° C., shaking at 150 rpm for 3 hours, after which 10 μl of Alamar Blue were added to each well and plates were incubated for 1 additional hour. After this incubation, 100 μl of a 0.03% Cetyltrimethylammonium bromide with 0.1M EDTA solution was added to each well. The plates were placed on a shaker at 450 RPM for 10 minutes, followed by centrifugation at 2500×g for 2.5 minutes. The wells were aspirated and 100 μL PBS with 0.05% Tween-20 (PBST) or 100 μl of a 0.03% Cetyltrimethylammonium bromide with 0.1M EDTA solution was added back into the wells. Ten microliters of Eu-cryptate-diamine (5 ng/well) was added to each well and the plates were shaken for 10 minutes. The plates were then centrifuged, the wells aspirated, and 200 μL 1×PBST were added to each well. These steps were repeated twice. After the final wash, time-resolved fluorescence (TRF) for all wells was read at 330/615 nm.

For `CC[C@H]1OC(=O)[C@H](C)[C@@H](O[C@H]2C[C@@](C)(OC)[C@@H](O)[C@H](C)O2)[C@H](C)[C@@H](O[C@@H]2O[C@H](C)C[C@H](N(C)C)[C@H]2O)[C@](C)(O)C[C@@H](C)CN(C)[C@H](C)[C@@H](O)[C@]1(C)O` [ATM, azithromycin], the MIC values [1] is listed as “less than or equal to 0.25 μg/ml”.

For colistin, the “anionic ratio (background subtracted fluorescent signal in colistin divided by signal in MHB)” value [2] was 0.96 and the “anionic ratio (background subtracted fluorescent signal in colistin divided by signal in MHB)” value [3] was −0.08.

Work on `CN[C@H](CC(C)C)C(=O)N[C@H]1C(=O)N[C@@H](CC(N)=O)C(=O)N[C@H]2C(=O)N[C@H]3C(=O)N[C@H](C(=O)N[C@H](C(=O)O)c4cc(O)cc(O)c4-c4cc3ccc4O)[C@H](O)c3ccc(c(Cl)c3)Oc3cc2cc(c3O[C@@H]2O[C@H](CO)[C@@H](O)[C@H](O)[C@H]2O[C@H]2C[C@](C)(N)[C@H](O)[C@H](C)O2)Oc2ccc(cc2Cl)[C@H]1O` [VAN, vancomycin] yielded an MIC [4] of 2 µg/mL (≈ 1.38 µM).
